In US12673915B2, “Precursor compound of hexahydro-beta-acid component compound, feed composition and use thereof” (WISORIG TECHNOLOGIES PTE. LIMITED, priority 2020, dated 2026):

System: Duroc×Landrace×Yorkshire cross-bred bacon-type piglets
Experiment: Effect on the production performance of hogs (14-day feeding trial)
Type: in vivo
Details: 14 days, piglets
Description: 480 67-day-old Duroc×Landrace×Yorkshire cross-bred bacon-type piglets with similar body weight, were randomly divided into 16 groups, with 3 replications per group, 10 piglets per replication and equal amounts of males and females. The pig pen and tools were sterilized before the trial. In the trial, the piglets were kept in separate regions in the same pig pen under the same feeding and management conditions, were given a free hand with the feed and the water, and were fed twice a day. The groups were known as control group (group 1) and test groups 2 to 16. The piglets of the control group were fed with basal formula feed only, while those of the test groups 2 to 16 were respectively fed with basal formula feed mixed with different additives, wherein the active ingredient of the additives was a hexahydro-β-acid compound or a prodrug of a hexahydro-β-acid compound provide herein, and the content thereof in the feed was 5 or 25 ppm as shown in Table 4.
The trial lasted for 14 days. During the trial, each test group was not fed with other antioxidants or growth enhancers. On the 14th day, each test group was fed with no feed but water for 12 hours, and the piglets of each replication as one unit were weighed to calculate the average daily feed intake (ADFI, g/d per piglet), the average daily weight gain (ADG, g/d per piglet), and the feed conversion ratio (FCR). Average daily feed intake=(Total weight of provided feed−Weight of residual feed)/(Days of the trial×Number of piglets in each replicate) Average daily weight gain=(final average body weight−initial average body weight)/Days of the trial Feed conversion ratio=average daily feed intake/average daily weight gain

## CC(=O)OC1=C(CCC(C)C)C(=O)C(CCC(C)C)(CCC(C)C)C(O)=C1C(=O)C(C)C [hexahydro-colupulone mono-acetate, Hexahydro-Colupulone Mono-Acetate]
5 ppm in feed
  ADFI (average daily feed intake): 860 g/d per piglet
  ADG (average daily weight gain): 368 g/d per piglet
  FCR (feed conversion ratio): 2.340
25 ppm in feed
  ADFI (average daily feed intake): 960 g/d per piglet
  ADG (average daily weight gain): 435 g/d per piglet
  FCR (feed conversion ratio): 2.208

## CCCC(=O)OC1=C(CCC(C)C)C(=O)C(CCC(C)C)(CCC(C)C)C(O)=C1C(=O)C(C)C [hexahydro-colupulone mono-butyrate]
5 ppm in feed
  ADFI (average daily feed intake): 991 g/d per piglet
  ADG (average daily weight gain): 447 g/d per piglet
  FCR (feed conversion ratio): 2.217
25 ppm in feed
  ADFI (average daily feed intake): 973 g/d per piglet
  ADG (average daily weight gain): 441 g/d per piglet
  FCR (feed conversion ratio): 2.205

## CC(C)CCC1=C(O)C(C(=O)C(C)C)=C(O)C(CCC(C)C)(CCC(C)C)C1=O [hexahydro-colupulone, reference compound]
25 ppm in feed
  ADFI (average daily feed intake): 894 g/d per piglet
  ADG (average daily weight gain): 403 g/d per piglet
  FCR (feed conversion ratio): 2.218
